# According to ChEMBL document CHEMBL1134734, “Introduction of alkynyl chains on C-8 of adenosine led to very selective antagonists of the A(3) adenosine receptor” (Bioorg Med Chem Lett, 2001):
# pEC50, pIC50, pKi: −log10 of the molar value.
# Experiments:
# Adenosine receptor A2a = Adenosine receptor A2a (Homo sapiens, UniProt P29274); assay: [3H]NECA […] binding in CHO cells expressing human recombinant A2A adenosine receptor; format: cell-based
# Adenosine receptor A2b [1] = target: T1, Adenosine receptor A2b (Homo sapiens, UniProt P29275); assay: Antagonistic activity against Adenosine A2B receptor; format: functional
# T1 sequence (P29275 whole entry): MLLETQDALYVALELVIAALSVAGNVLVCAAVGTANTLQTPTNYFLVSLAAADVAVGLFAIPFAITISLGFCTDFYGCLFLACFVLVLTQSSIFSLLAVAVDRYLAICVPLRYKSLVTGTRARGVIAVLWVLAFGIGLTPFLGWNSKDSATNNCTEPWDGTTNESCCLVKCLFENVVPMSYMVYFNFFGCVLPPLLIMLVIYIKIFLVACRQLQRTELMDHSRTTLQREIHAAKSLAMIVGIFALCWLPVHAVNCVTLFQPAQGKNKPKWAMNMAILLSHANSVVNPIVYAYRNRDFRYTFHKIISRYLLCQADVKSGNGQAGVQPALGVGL
# Adenosine receptor A3 = target: T2, Adenosine receptor A3 (Homo sapiens, UniProt P0DMS8); assay: [3H]NECA […] binding in CHO cells expressing human Adenosine A3 receptor; format: cell-based
# T2 sequence (P0DMS8 whole entry): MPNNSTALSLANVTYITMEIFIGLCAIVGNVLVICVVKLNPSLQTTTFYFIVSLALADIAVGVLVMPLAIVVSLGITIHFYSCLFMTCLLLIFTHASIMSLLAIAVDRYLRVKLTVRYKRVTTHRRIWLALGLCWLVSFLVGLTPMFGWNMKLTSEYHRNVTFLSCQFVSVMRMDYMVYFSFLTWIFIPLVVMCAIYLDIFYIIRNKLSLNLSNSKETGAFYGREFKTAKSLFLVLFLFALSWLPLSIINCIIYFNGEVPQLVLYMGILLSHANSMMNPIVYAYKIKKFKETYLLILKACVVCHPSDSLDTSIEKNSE
# [2] = target: T3, Adenosine receptor A3 (Homo sapiens) (UniProt P0DMS8); conditions: CHO, 1 uM
# T3 sequence (whole entry): T2 sequence (P0DMS8 whole entry)
# Description: Inhibition of [35S]GTP gamma-S binding to CHO cell membranes expressing human A3 receptor at 1 uM
# Adenosine receptor A2b [3] = target: T1, Adenosine receptor A2b; assay: Receptor stimulated adenylyl cyclase activity in CHO cells expressing human recombinant Adenosine A2B receptor; format: functional, cell-based
# Adenosine receptor A1 = target: T4, Adenosine receptor A1 (Homo sapiens, UniProt P30542); assay: Displacement of [3H]-CCPA from CHO cells expressing human recombinant Adenosine A1 receptor; format: cell-based
# T4 sequence (P30542 whole entry): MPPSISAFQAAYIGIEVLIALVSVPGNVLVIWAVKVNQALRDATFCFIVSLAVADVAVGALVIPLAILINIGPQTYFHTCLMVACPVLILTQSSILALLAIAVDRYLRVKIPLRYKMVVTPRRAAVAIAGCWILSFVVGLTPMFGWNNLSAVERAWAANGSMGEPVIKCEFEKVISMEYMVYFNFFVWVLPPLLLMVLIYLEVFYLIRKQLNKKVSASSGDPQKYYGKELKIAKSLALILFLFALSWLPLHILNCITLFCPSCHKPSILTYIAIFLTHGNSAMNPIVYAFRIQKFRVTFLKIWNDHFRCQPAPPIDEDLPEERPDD
# [4] = target: T3, Adenosine receptor A3 (Homo sapiens); assay: Stimulation of [35S]GTP gamma-S binding in CHO cell membranes expressing human A3 receptor at 983 uM; format: functional
# [5] = target: T3, Adenosine receptor A3 (Homo sapiens); assay: Stimulation of [35S]GTP gamma-S binding in CHO cell membranes expressing human A3 receptor at 78.8 uM; format: functional
# Sequence of Adenosine receptor A2a (P29274 whole entry): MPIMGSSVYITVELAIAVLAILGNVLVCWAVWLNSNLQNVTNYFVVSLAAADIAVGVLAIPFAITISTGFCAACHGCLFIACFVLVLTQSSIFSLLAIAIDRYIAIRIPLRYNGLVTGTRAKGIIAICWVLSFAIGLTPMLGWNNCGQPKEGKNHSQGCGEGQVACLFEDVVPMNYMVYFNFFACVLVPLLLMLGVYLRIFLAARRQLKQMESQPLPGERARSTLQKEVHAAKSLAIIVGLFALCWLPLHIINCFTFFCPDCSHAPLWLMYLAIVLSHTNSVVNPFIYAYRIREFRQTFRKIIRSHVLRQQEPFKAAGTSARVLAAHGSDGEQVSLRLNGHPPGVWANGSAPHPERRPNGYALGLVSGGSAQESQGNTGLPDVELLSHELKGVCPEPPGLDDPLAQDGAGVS
Structure (SMILES),pKi (Adenosine receptor A2a),pIC50 (Adenosine receptor A2b [1]),pKi (Adenosine receptor A3),Agonist effect [2] [%],pEC50 (Adenosine receptor A2b [3]),pKi (Adenosine receptor A1),Agonist effect [4] [%],Agonist effect [5] [%]
CCn1c(C#Cc2ccccc2)nc2c(N)ncnc21,6.22,≤ 4.00,7.07,,,,,
CCNC(=O)[C@H]1O[C@@H](n2cnc3c(N)ncnc32)[C@H](O)[C@@H]1O,,,,100,,,,
"CCCCC#Cc1nc2c(N)ncnc2n1[C@@H]1O[C@H](CO)C(O)C1O (single isomer, unassigned)",< 4.00,,,,< 4.00,< 4.00,,
Nc1ncnc2c1nc(/C=C/C(=O)c1ccccc1)n2[C@@H]1O[C@H](CO)[C@@H](O)[C@H]1O,4.33,,5.01,,< 4.00,< 4.00,1.9,
"Nc1ncnc2c1nc(C#Cc1ccccc1)n2[C@@H]1O[C@H](CO)C(O)C1O (single isomer, unassigned)",< 4.00,,6.10,,< 4.00,< 4.00,,0.2
